The assay relates to bacteria, virus and yeast. Briefly: germicidal efficacy of surfactant-detergent compounds. The note with it: surfactants tested separately and in combination. From the text: Disinfecting surfactant-detergent compounds are also used in the liquid composition. Surfactants are effective germicides and attack the membranes of the organisms. Also, the surfactants are surface active reducing surface tension. […] It is thought that the surfactant has two characteristics which contribute to this invention. Those being germicidal activity including effectiveness over a wide range of organisms including bacteria, virus and yeast and providing a reduction of the surface tension of the composition to achieve effective spread and distribution if the germicide on the surface to be disinfected. Two different types of surfactants were tested separately and in combination for efficacy. […] There are other compounds which have the properties of germicide-surfactants, and this invention is not limited to those compounds shown in the examples.

On to `CCCCCCCCCCCCOS(=O)(=O)[O-].[Na+]` [sodium dodecyl sulfate], for which the efficacy as germicide-surfactant entry is listed as “effective germicide-surfactants”.

Consider octyl phenoxy polyethoxyethanol, for which the efficacy as germicide-surfactant entry is reported as “effective germicide-surfactants”.

The values are drawn from US20060222675A1, “Personal care compositions with color changing indicator” (priority 2005, published 2006).
